By inhibition is commonly meant how much of the control response was suppressed. For orientation: IC50 means the concentration that inhibits the measured activity by half.

The test system of assay [1] is wild-type HBV baculovirus. As to the kind of experiment: Antiviral testing with wild-type HBV baculovirus in HepG2 cells (Example 15, Southern blot densitometry). It is filed as cell-based, Hepatitis B virus. The protocol:
(§1) HepG2 cells were seeded at approximately 20-40% confluency and then were grown for 16-24 hours before infection. On the day of infection, triplicate plates of cells were trypsinized, and viable cell number was determined with a hemocytometer using Trypan blue exclusion. Average cell counts were calculated and used to determine the volume of high-titer viral stock necessary to infect cells at the indicated moi. HepG2 cells were washed one time with serum-free MEM to remove traces of serum. Baculovirus was diluted into MEM without serum to achieve the appropriate moi using volumes of 1.0, 0.5, and 0.25 ml to infect 100-mm, 60 mm, and 35-mm dishes, respectively. Baculovirus was adsorbed to HepG2 cells for one hour at 37° C. with gentle rocking every 15 minutes to ensure that the inoculum was evenly distributed. The inoculum was then aspirated and HepG2 cells were washed two times with phosphate-buffered saline and refed MEM-FBS with or without various concentrations of agents.
(§2) HBV core particles were isolated from the cytoplasmic fraction of HepG2 cells lysed in 0.5% w/v NP-40. Cytoplasmic extracts were adjusted to 10 mmol/l McC12 and unprotected DNA was removed by an incubation to […] for 1.5 hours at 37° C. Following sequential phenol and chloroform extractions, nucleic acids were recovered by ethanol precipitation. Nucleic acids were resuspended in 50 μl/l TE (10 mmol/l Tris, 1 mmol/l ethylenedianinetetraacetic acid), normalized by OD260, and digested with 100 μg/ml RNase (Boehringer Mannheim, Indianapolis, Ind.) for one hour at 37° C. before analysis by electrophoresis and Southern blotting. A BioRad GS-670 imaging densitometer and the Molecular Analyst software (BioRad, Hecules Calif.) was used to analyze suitable exposures of Southern blots. Densitometry data was fitted to logistic dose response curves using the TableCurve2D software package from Jandel Scientific. Logistic dose response equations were used to calculate IC50 and IC90 values and co-efficients of variation.
(§3) 3TC and PCV were a gift from Klaus Esser, SmithKline Beecham, Collegeville, Pa. PMEA was obtained from Gilead (Foster City, Calif.). 3TC was resuspended in sterile water, aliquoted, and frozen at −20° C. to avoid repeated freezing and thawing of the drug. PMEA was resuspended in sterile water after the pH was adjusted to 7.0 with NaOH. PCV was resuspended in dimethyl sulphoxide. Medium containing 3TC was prepared daily as needed using fresh aliquots of 3TC. In experiments in which 3TC treatment was initiated after viral infection, HepG2 cells were exposed to the indicated concentration of 3TC immediately after infection with HBV baculovirus. In experiments utilizing pretreatment with 3TC, cells were fed medium containing 3TC 16 hours prior to HBV baculovirus infection, HBV baculovirus infection was also carried out in medium containing 3TC, and cells were refed fresh medium containing 3TC immediately after completion of the infection and washing procedures. Treatment with PMEA and PCV were conducted in a similar manner.
The dose effect of 3TC and PMEA, on wild-type HBV is shown graphically in FIG. 6 (A, B,) and a Southern Blot of intracellular HBV replicative intermediates and extracellular virus produced by HepG2 cells transduced with wild-type HBV-baculovirus in the presence of increasing concentrations of PCV is shown in FIG. 6C and the IC50 for each antiviral agent is shown in Table 2.

Assay [2] relates to L526M/M550V HBV baculovirus. As to the kind of experiment: Antiviral testing with L526M/M550V HBV baculovirus in HepG2 cells (Example 15). It is filed as cell-based, Hepatitis B virus. The protocol: as §1, §2, §3

With `Nc1ncnc2c1ncn2CCOCP(=O)(O)O` [Adefovir, 9-(2-phosphonylmethoxyethyl)adenine], the inhibition at 1 µM in assay [1] (Hepatitis B virus, HepG2, wt HBV, ds HBV DNA band density vs untreated controls, estimated from fitted curve, negative = stimulation of replication) is 91.6%; in assay [2] (Hepatitis B virus, HepG2, dual (L526M/M550V) HBV, ds HBV DNA band density vs untreated controls, estimated from fitted curve, negative = stimulation), 77%. Moreover, the IC50 in assay [1] (Hepatitis B virus, wt HBV, ds HBV DNA bands, HepG2 cells) is 80 nM; in assay [2] (Hepatitis B virus, dual (L526M/M550V) HBV, ds HBV DNA bands, HepG2 cells), 160 nM. Further, the “Resistance Factor” value in assay [1] ({}) came to 1; in assay [2] ({}) it was 2. Moreover, the “change in sensitivity of L526M/M550V” value in assay [2] (FIG. 8A-8C, result in words) was “no substantial change”.

These data come from US6969583B2, “Method for detecting variant HBV” (Melbourne Health, priority 2000, dated 2005).
